Tests used:
PIK3CD (Human) [1] = biological target: PIK3CD (Human) (UniProt O00329); experiment: Cell-Based Assay; details: raji
PIK3CB (Human) = PIK3CB (Human) (UniProt P42338); experiment: Enzyme Assay
PIK3CD (Human) [2] = biological target: PIK3CD (Human) (UniProt O00329); experiment: Enzyme Assay
PIK3CG (human) = PIK3CG (human) (UniProt P48736); experiment: Enzyme Assay
Chain of PIK3CG (human) (P48736 whole entry, looked up): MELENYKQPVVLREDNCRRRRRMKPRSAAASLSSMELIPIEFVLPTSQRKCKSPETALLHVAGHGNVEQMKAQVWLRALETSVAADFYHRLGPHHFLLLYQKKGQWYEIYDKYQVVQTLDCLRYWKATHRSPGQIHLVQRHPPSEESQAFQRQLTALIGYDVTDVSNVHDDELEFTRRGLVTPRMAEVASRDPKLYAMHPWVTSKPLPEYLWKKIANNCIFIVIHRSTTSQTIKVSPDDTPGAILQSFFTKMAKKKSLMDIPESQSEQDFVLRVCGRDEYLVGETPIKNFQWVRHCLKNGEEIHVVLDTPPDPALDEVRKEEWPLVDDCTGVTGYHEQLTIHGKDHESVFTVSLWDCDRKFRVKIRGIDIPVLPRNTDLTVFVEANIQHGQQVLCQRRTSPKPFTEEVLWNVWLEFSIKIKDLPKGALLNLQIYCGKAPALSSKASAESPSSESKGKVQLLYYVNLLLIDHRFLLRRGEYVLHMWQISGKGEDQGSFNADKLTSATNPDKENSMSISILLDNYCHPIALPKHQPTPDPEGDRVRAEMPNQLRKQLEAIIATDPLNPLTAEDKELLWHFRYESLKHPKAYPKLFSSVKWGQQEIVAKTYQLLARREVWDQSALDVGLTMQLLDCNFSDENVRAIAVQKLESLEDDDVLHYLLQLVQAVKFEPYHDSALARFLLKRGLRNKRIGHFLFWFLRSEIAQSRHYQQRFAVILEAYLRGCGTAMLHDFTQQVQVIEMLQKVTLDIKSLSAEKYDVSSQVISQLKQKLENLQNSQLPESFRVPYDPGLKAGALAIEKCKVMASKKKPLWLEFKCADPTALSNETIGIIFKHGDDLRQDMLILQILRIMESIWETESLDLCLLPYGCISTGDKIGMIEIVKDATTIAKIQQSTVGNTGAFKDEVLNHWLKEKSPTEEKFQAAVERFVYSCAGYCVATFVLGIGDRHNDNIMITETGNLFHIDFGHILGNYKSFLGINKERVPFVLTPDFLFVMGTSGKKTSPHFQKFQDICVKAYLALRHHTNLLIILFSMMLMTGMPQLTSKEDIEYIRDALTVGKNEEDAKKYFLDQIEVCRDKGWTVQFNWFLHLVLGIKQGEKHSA

Chain of PIK3CB (Human) (P42338 whole entry, looked up): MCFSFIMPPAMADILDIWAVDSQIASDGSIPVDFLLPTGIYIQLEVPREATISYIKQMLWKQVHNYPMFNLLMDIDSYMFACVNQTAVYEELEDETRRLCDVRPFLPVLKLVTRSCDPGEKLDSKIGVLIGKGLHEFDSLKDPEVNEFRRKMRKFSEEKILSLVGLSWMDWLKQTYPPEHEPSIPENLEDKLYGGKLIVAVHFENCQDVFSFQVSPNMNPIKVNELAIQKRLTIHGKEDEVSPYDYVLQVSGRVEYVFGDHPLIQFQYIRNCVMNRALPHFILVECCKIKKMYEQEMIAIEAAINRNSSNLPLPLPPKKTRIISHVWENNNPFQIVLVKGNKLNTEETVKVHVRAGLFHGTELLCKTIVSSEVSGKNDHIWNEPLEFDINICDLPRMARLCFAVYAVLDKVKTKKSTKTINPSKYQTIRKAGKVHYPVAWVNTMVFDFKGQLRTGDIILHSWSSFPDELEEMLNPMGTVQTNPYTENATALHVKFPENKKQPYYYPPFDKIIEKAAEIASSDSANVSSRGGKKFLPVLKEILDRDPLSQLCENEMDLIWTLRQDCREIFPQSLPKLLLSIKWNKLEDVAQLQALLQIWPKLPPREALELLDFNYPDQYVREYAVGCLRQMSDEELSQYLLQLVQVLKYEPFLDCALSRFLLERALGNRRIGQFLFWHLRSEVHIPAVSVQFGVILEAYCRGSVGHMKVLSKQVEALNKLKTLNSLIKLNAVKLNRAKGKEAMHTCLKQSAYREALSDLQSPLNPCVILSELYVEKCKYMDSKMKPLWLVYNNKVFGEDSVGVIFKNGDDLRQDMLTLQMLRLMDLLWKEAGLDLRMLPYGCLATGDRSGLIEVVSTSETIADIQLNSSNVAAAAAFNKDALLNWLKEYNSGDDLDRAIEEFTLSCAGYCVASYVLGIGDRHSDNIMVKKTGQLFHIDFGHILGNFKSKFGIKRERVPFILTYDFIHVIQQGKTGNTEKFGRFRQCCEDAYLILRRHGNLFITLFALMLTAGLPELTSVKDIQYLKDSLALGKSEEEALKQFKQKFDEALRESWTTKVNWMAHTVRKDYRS
Chain of PIK3CD (Human) (O00329 whole entry, looked up): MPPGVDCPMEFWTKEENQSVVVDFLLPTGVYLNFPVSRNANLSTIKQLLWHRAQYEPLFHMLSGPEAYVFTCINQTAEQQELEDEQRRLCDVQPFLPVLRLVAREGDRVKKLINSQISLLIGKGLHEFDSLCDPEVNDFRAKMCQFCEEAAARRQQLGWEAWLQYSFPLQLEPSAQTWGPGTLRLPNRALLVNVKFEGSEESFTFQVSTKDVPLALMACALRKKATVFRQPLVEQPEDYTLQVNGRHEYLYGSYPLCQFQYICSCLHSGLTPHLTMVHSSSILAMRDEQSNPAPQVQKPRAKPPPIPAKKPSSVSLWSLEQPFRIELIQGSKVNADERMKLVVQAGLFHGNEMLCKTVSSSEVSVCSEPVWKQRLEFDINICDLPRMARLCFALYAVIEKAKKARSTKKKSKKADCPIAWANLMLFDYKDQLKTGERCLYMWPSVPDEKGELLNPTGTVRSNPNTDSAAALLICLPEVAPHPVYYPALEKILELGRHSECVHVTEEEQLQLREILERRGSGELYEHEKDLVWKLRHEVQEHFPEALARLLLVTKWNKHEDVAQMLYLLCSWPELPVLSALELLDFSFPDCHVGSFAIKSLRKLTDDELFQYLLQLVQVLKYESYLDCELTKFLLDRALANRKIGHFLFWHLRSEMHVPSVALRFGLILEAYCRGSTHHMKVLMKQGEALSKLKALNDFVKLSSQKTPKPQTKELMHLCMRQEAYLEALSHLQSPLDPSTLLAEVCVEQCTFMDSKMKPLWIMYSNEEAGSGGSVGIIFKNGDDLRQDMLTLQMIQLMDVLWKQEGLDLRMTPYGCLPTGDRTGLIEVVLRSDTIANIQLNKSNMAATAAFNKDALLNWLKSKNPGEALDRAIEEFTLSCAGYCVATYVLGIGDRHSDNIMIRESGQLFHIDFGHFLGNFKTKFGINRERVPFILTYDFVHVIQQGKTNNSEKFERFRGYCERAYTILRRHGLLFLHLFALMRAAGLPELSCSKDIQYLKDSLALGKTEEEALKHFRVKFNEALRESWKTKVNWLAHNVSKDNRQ

IC50 (PIK3CD (Human) [1]) [µM] | IC50 (PIK3CB (Human)) [µM] | IC50 (PIK3CD (Human) [2]) [µM] | IC50 (PIK3CG (human)) [µM] | Structure (SMILES)
0.5 to 1 | 5 to 10 | 5 to 10 | 0.1 to 0.5 | C[C@H](NC(=O)c1c(N)nn2cccnc12)c1cc2cccc(C#Cc3ccccn3)c2c(=O)n1-c1ccccc1
0.1 to 0.5 | 5 to 10 | 5 to 10 | 0.001 to 0.1 | Cc1nc(C#Cc2cccc3cc([C@H](C)NC(=O)c4c(N)nn5cccnc45)n(-c4ccccc4)c(=O)c23)cs1
0.5 to 1 | 5 to 10 | 5 to 10 | 0.5 to 1 | CC(C)C#Cc1cccc2nc([C@H](C)NC(=O)c3c(N)nn4cccnc34)n(-c3ccccc3)c(=O)c12
0.1 to 0.5 | 5 to 10 | 5 to 10 | 0.1 to 0.5 | Cc1scnc1C#Cc1cccc2cc([C@H](C)NC(=O)c3c(N)nn4cccnc34)n(-c3ccccc3)c(=O)c12
0.5 to 1 | 5 to 10 | 5 to 10 | 0.1 to 0.5 | Cc1c(C#Cc2cccc3cc([C@H](C)NC(=O)c4c(N)nn5cccnc45)n(-c4ccccc4)c(=O)c23)cnn1C
1 to 10 | 5 to 10 | 5 to 10 | 0.5 to 1 | C[C@H](NC(=O)c1c(N)nn2cccnc12)c1cc2cccc(C#CC3CCNCC3)c2c(=O)n1-c1ccccc1
0.1 to 0.5 | 5 to 10 | 5 to 10 | 0.1 to 0.5 | Cc1csc(C#Cc2cccc3cc([C@H](C)NC(=O)c4c(N)nn5cccnc45)n(-c4ccccc4)c(=O)c23)n1
1 to 10 | 5 to 10 | 5 to 10 | 0.5 to 1 | C[C@H](NC(=O)c1c(N)nn2cccnc12)c1cc2cccc(C#CC(C)(C)N)c2c(=O)n1-c1ccccc1
1 to 10 | 5 to 10 | 5 to 10 | 0.1 to 0.5 | C[C@H](NC(=O)c1cnn2cccnc12)c1cc2cccc(C#Cc3cnn(C)c3)c2c(=O)n1-c1ccccc1
0.001 to 0.1 | 5 to 10 | 5 to 10 | 0.1 to 0.5 | C[C@H](NC(=O)c1c(N)nn2cccnc12)c1cc2cccc(C#CC3CCOCC3)c2c(=O)n1-c1ccccc1
0.1 to 0.5 | 5 to 10 | 5 to 10 | 0.1 to 0.5 | C[C@H](NC(=O)c1c(N)nn2cccnc12)c1cc2cccc(C#Cc3ccn[nH]3)c2c(=O)n1-c1ccccc1
0.1 to 0.5 | 0.001 to 0.5 | 1 to 5 | 0.001 to 0.1 | C[C@H](NC(=O)c1c(N)nn2cccnc12)c1cc2cccc(C#CC=O)c2c(=O)n1-c1ccccc1
0.001 to 0.1 | 1 to 5 | 0.001 to 0.5 | 0.001 to 0.1 | C[C@H](NC(=O)c1c(N)nn2cccnc12)c1cc2cccc(C#CCN3CCCC3=O)c2c(=O)n1-c1ccccc1
0.1 to 0.5 | 5 to 10 | 1 to 5 | 0.001 to 0.1 | C[C@H](NC(=O)c1c(N)nn2cccnc12)c1cc2cccc(C#Cc3ccc(=O)n(C)c3)c2c(=O)n1-c1ccccc1
1 to 10 | 5 to 10 | 5 to 10 | 1 to 5 | C[C@H](NC(=O)c1c(N)nn2cccnc12)c1cc2cccc(NC(=O)c3cnn(C)c3)c2c(=O)n1-c1ccccc1
0.1 to 0.5 | 5 to 10 | 5 to 10 | 1 to 5 | COc1cc(C#Cc2cccc3cc([C@H](C)NC(=O)c4c(N)nn5cccnc45)n(-c4ccccc4)c(=O)c23)ccn1
0.001 to 0.1 | 1 to 5 | 0.5 to 1 | 0.001 to 0.1 | CC#Cc1cccc2nc([C@H](C)NC(=O)c3c(N)nn4cccnc34)n(-c3ccccc3)c(=O)c12
0.001 to 0.1 | 1 to 5 | 1 to 5 | 0.001 to 0.1 | C#Cc1cccc2nc([C@H](C)NC(=O)c3nccnc3N)n(-c3ccc(F)cc3)c(=O)c12
0.1 to 0.5 | 5 to 10 | 5 to 10 | 0.1 to 0.5 | C[C@H](NC(=O)c1c(N)nn2cccnc12)c1cc2cccc(C#Cc3nccs3)c2c(=O)n1-c1ccccc1
0.1 to 0.5 | 5 to 10 | 0.5 to 1 | 0.001 to 0.1 | C[C@H](NC(=O)c1c(N)nn2cccnc12)c1cc2cccc(C#C[C@@H](C)O)c2c(=O)n1-c1ccccc1
0.001 to 0.1 | 1 to 5 | 0.5 to 1 | 0.001 to 0.1 | C[C@H](NC(=O)c1c(N)nn2cccnc12)c1cc2cccc(C#CCO)c2c(=O)n1-c1ccccc1
0.1 to 0.5 | 1 to 5 | 1 to 5 | 0.001 to 0.1 | COCC#Cc1cccc2cc([C@H](C)NC(=O)c3c(N)nn4cccnc34)n(-c3ccccc3)c(=O)c12
0.5 to 1 | 5 to 10 | 5 to 10 | 1 to 5 | C[C@H](NC(=O)c1c(N)nn2cccnc12)c1cc2cccc(C#CC(F)(F)F)c2c(=O)n1-c1ccccc1
0.1 to 0.5 | 5 to 10 | 5 to 10 | 0.1 to 0.5 | C[C@H](NC(=O)c1c(N)nn2cccnc12)c1cc2cccc(C#Cc3cccnc3)c2c(=O)n1-c1ccccc1
0.1 to 0.5 | 5 to 10 | 5 to 10 | 0.5 to 1 | C[C@H](NC(=O)c1c(N)nn2cccnc12)c1cc2cccc(C#CCN(C)C)c2c(=O)n1-c1ccccc1
0.5 to 1 | 1 to 5 | 5 to 10 | 1 to 5 | C[C@H](NC(=O)c1c(N)nn2cccnc12)c1nc2cccc(C#Cc3cnn(C)c3)c2c(=O)n1C
0.5 to 1 | 5 to 10 | 5 to 10 | 0.5 to 1 | C[C@H](NC(=O)c1c(N)nn2cccnc12)c1cc2cccc(C#CC3CCN(S(C)(=O)=O)CC3)c2c(=O)n1-c1ccccc1
0.5 to 1 | 5 to 10 | 5 to 10 | 0.1 to 0.5 | COc1ccc(C#Cc2cccc3cc([C@H](C)NC(=O)c4c(N)nn5cccnc45)n(-c4ccccc4)c(=O)c23)cn1
0.5 to 1 | 5 to 10 | 5 to 10 | 0.1 to 0.5 | C[C@H](NC(=O)c1c(N)nn2cccnc12)c1cc2cccc(C#Cc3cncn3C)c2c(=O)n1-c1ccccc1
1 to 10 | 5 to 10 | 5 to 10 | 1 to 5 | C[C@H](NC(=O)c1c(N)nn2cccnc12)c1cc2cccc(C#CC3CCCCC3)c2c(=O)n1-c1ccccc1

Source: the Kinase Knowledgebase extract (Sharma et al. 2016)
